The assay concerns male C57BL/6 mice on HFD. As to the kind of experiment: Oral PKD inhibitor in mice with pre-established obesity (rescue, treatment after 7 weeks of HFD). The format is in vivo, mouse. The protocol: Mice body weight development was closely monitored and reported here on a weekly basis when mice were on a specified diet. All experiments were performed in male mice. […] A glucose tolerance test (GTT) was performed after overnight fasting. Mice blood glucose was assessed before and 15, 30, 60, 90, and 120 minutes after intraperitoneal injection of glucose (2 g/kg). For the Insulin tolerance test (ITT), the same measurements were performed after 4 hours of fasting and intraperitoneal injection of 0.5 U/kg of recombinant insulin. For glucose measurements, one blood drop was drawn from the tail tip into a test strip and measured with a glucometer (Accu-Chek® Roche).

As for `CC[C@@H](N)CNc1ccnc(-c2cc(-c3cnn(C)c3)ccc2O)n1` [CRT0066101], the glucose tolerance entry (8 weeks after starting treatment, FIG. 7D) is listed as “improved glucose tolerance”. Besides, where the note is “10 weeks after starting treatment, FIG. 7E”, the insulin sensitivity entry is on record as “improved”. Besides, the weight gain result (treatment started after 7 weeks HFD, HFD continued, vs water, FIG. 7A) was “significantly decreased weight gain”. The “obesity (fat depots, fat mass by NMR)” value (treatment started after 7 weeks HFD, FIG. 7B-C) was “less obesity”.
